From patent publication US20240325412A1, “COMBINATIONS” (Recurium IP Holdings, LLC, priority 2021, published 2024)

Columns and labels:
MOLM-13 cells = assay: CellTiter-Glo Luminescent Cell Viability Assay, MOLM-13; assay type: cell-based; conditions: Homo sapiens, 72 h, Compound (1A) 4 nM, Compound (B) 12 nM alone / 120 nM in combinations, Azacitidine 300 nM
Experimental: (§1) Cell proliferation was measured using the CellTiter-Glo® Luminescent Cell Viability Assay. The assay involved the addition of a single reagent (CellTiter-Glo® Reagent) directly to cells cultured in serum-supplemented medium. OPM-2, MOLM-13 and HL-60 cells were cultured according to ATCC recommendations and were seeded at 10,000 cells per well.
(§2) Compound (1 A), Compound (B) and Dexamethasone or Azacitidine were prepared as a DMSO stock solution (10 mM). For OPM-2 cell line, compounds were tested in triplicate using Dexamethasone; MOLM-13 and HL-60 cell lines compound were tested in triplicate using Azacitidine. Plates were incubated at 37° C., 5% CO2 for 72 h and then equilibrated at room temperature (RT) for approximately 30 min. An equal-volume amount of CellTiter-Glo® Reagent (100 μL) was added to each well. Plates were mixed for 2 min on an orbital shaker to induce cell lysis and then incubated at RT for 10 min to stabilize the luminescent signal. Luminescence (RLU (relative light unit)) was recorded using a SpectraMAX, M5e plate reader according to CellTiter-Glo protocol. Percent inhibition was calculated using the following formula: % inhibition=(RLU*100/(RLU of the cell background)).

HL-60 cells [1] = assay: CellTiter-Glo Luminescent Cell Viability Assay, HL-60; assay type: cell-based; conditions: Homo sapiens, 72 h, Compound (1A) 40 nM, Compound (B) 120 nM, Azacitidine 1500 nM, alone or combined
Experimental: as §1, §2

HL-60 cells [2] = assay: HL-60 leukemia xenograft model; assay type: in vivo, Mice; conditions: HL-60 xenograft, Compound (1A) 25 mg/kg p.o. qd×21, Compound (B) 30 mg/kg p.o., azacitidine 1 mg/kg IP 5 days on 2 days off
Experimental: Mice were inoculated with HL-60 cells subcutaneously on the right flank with the single cell suspension of 95% viable tumor cells (1×10^7) in 100 μL IMDM Matrigel mixture (1:1 ratio) without serum for the tumor development. The treatment was started when the mean tumor size reached approximately 214 mm^3, with individual tumor size ranging from 185-245 mm^3. Animals were randomly distributed into treatment groups of 10 animals each and dosed with vehicle and indicated compounds at indicated dosage and frequency shown in FIG. 5 and Table 4. In FIG. 5, the bottom line is Compound (1A) 25 mg/kg p.o. qd×21+Compound (B) 30 mg/kg p.o. pd×21+azacitidine 1 mg/kg IP 5 days on 2 days off×3 cycle, the second from the bottom line is Compound (1A)+Compound (B), the third from the bottom line is Compound (1A)+azacytidine, the fourth from the bottom line is Compound (1A), the top line is Vehicle, the second from the top line is Compound (B), and the remaining two lines are azacytidine (indicated with triangles) and Compound (B)+azacytidine (indicated with diamonds). Tumor volumes were evaluated twice per week to calculate tumor volume over time, and mice were weighed twice per week as a surrogate for signs of toxicity. Tumor growth inhibition (TGI) was calculated using the following equation TGI=(1−(Td−T0)/(Cd−C0))×100%. Td and Cd are the mean tumor volumes of the treated and control animals, and T0 and C0 are the mean tumor volumes of the treated and control animals at the start of the experiment. The tumor regression was defined as individual tumor volume (TV) decrease (terminal TV compared to initial TV). FIG. 5 and Table 4 illustrate that single agent, double agent and triple treatment of Compound (1A) at 25 mg/kg, Compound (B) at 30 mg/kg and azacitidine at 1 mg/kg.

OPM-2 cells [3] = assay: CellTiter-Glo Luminescent Cell Viability Assay, OPM-2; assay type: cell-based; conditions: Homo sapiens, 72 h, Compound (1A) 1500 nM, Compound (B) 300 nM, Dexamethasone 100 nM, alone or combined
Experimental: as §1, §2

OPM-2 cells [4] = assay: OPM-2 multiple myeloma xenograft model; assay type: in vivo, Mice; conditions: OPM-2 xenograft, Compound (1A) 25 mg/kg, Compound (B) 30 mg/kg, Bortezomib 0.5 mg/kg (text: 100 and 60 mg/kg p.o. qd×21, IP BIW)
Experimental: Mice were inoculated with OPM-2 cells subcutaneously on the right flank with the single cell suspension of 95% viable tumor cells (1×10^7) in 100 μL IMDM Matrigel mixture (1:1 ratio) without serum for the tumor development. The treatment was started when the mean tumor size reached approximately 200 mm^3, with individual tumor size ranging from 185-225 mm^3. Animals were randomly distributed into treatment groups of 10 animals each and dosed with vehicle and indicated compounds at indicated dosage and frequency shown in FIG. 6 and Table 5. In FIG. 6, the bottom line is Compound (1A) 100 mg/kg p.o. qd×21+Compound (B) 60 mg/kg p.o. pd×21+Bortezomib 0.5 mg/kg IP BIW (twice a week)×3, the second from the bottom line is Compound (1A)+Compound (B), the third from the bottom line is Compound (B)+Bortezomib, the fourth from the bottom line is Compound (B), the top line is Vehicle, the second from the top is Bortezomib, the third from the top line (indicted with squares) is Compound (1A) and the fourth from the top line is Compound (1A)+Bortezomib. Tumor volumes were evaluated twice per week to calculate tumor volume over time, and mice were weighed twice per week as a surrogate for signs of toxicity. Tumor growth inhibition (TGI) was calculated using the following equation TGI=(1−(Td−T0)/(Cd−C0))×100%. Td and Cd are the mean tumor volumes of the treated and control animals, and T0 and C0 are the mean tumor volumes of the treated and control animals at the start of the experiment. The tumor regression was defined as individual tumor volume (TV) decrease (terminal TV compared to initial TV). FIG. 6 and Table 5 illustrate that single agent, double agent, and triple treatment of Compound (1A) at 100 mg/kg, Compound (B) at 60 mg/kg and bortezomib at 0.5 mg/kg.

KMS-12-BM cells = assay: KMS-12-BM multiple myeloma xenograft model; assay type: in vivo, Mice; conditions: KMS-12-BM xenograft, Compound (1A) 25 mg/kg, Compound (B) 30 mg/kg, Dexamethasone 1 mg/kg (text: 100 and 60 mg/kg)
Experimental: Mice were inoculated with KMS-12-BM cells subcutaneously on the right flank with the single cell suspension of 95% viable tumor cells (1×10^7) in 100 μL IMDM Matrigel mixture (1:1 ratio) without serum for the tumor development. The treatment was started when the mean tumor size reached approximately 193 mm^3, with individual tumor size ranging from 185-220 mm^3. Animals were randomly distributed into treatment groups of 10 animals each and dosed with vehicle and indicated compounds at indicated dosage and frequency shown in FIG. 7 and Table 6. In FIG. 7, the bottom line is Compound (1A) 100 mg/kg p.o. qd×21+Compound (B) 60 mg/kg p.o. pd×21+Dexamethasone 1 mg/kg IP 5 days on 2 days off ×3, the second from the bottom line is Compound (1A)+Compound (B), the third from the bottom line is Compound (B)+Dexamethasone, the fourth from the bottom line (indicated with triangles) is Compound (B), the top line is Vehicle, the second from the top line is Dexamethasone, the third from the top line is Compound (1A) and the remaining line is Compound (1A)+Dexamethasone. Tumor volumes were evaluated twice per week to calculate tumor volume over time, and mice were weighed twice per week as a surrogate for signs of toxicity. Tumor growth inhibition (TGI) was calculated using the following equation TGI=(1−(Td−T0)/(Cd−C0))×100%. Td and Cd are the mean tumor volumes of the treated and control animals, and T0 and C0 are the mean tumor volumes of the treated and control animals at the start of the experiment. The tumor regression was defined as individual tumor volume (TV) decrease (terminal TV compared to initial TV). The percent tumor regression was calculated using the formula: (1−(Td/T0))×100%.

[5] = test system: MDA-MB-436 cells (TNBC breast cancer cell line); assay: MDA-MB-436 triple negative breast cancer xenograft model; assay type: in vivo, Mice; conditions: MDA-MB-436 xenograft; Compound (1A) 200 mg/kg p.o. qd×40, Compound (B) 60 mg/kg p.o. qd×40; day 40
Experimental: Mice were inoculated with MDA-MB-436 cells (TNBC breast cancer cell line) subcutaneously on the right flank with the single cell suspension of 95% viable tumor cells (1×10^7) in 100 μL DMDM Matrigel mixture (1:1 ratio) without serum for the tumor development. The treatment was started when the mean tumor size reached approximately 210 mm^3 for each model (with individual tumor volumes between 180-240 mm^3). Animals were randomly distributed into treatment groups of 8 animals each and dosed with vehicle and indicated compounds at indicated dosage and frequency shown in FIG. 8 and Table 7. In FIG. 8, the top line (indicated with circles) is Vehicle control, the second from the top line (indicated with diamonds) is Compound (1A) (200 mg/kg 10 mL/kg p.o. qd×40) and the third line from the top (indicated with triangles) Compound (B) (60 mg/kg 10 mL/kg p.o. qd×40). The bottom line (indicated with circles) is Compound (1A) (200 mg/kg 10 mL/kg p.o. qd×40)+Compound (B) (60 mg/kg 10 mL/kg p.o. qd×40). Tumor volumes were evaluated twice per week to calculate tumor volume over time, and mice were weighed twice per week as a surrogate for signs of toxicity. Tumor growth inhibition (TGI) was calculated using the following equation TGI=(1−(Td−T0)/(Cd−C0))×100%. […]

Structure (SMILES)	TGI % (DAY 18) (HL-60 cells [2]) [%]	TGI % (DAY 17) (OPM-2 cells [4]) [%]	TGI % (DAY 14) (KMS-12-BM cells) [%]	TGI % [5] [%]	other results
Nc1ncn([C@@H]2O[C@H](CO)[C@@H](O)[C@H]2O)c(=O)n1 [Azacitidine, reference compound]	16	–	–	–	inhibition at 0.3 µM (MOLM-13 cells): 10.7%; inhibition at 1.5 µM (HL-60 cells [1]): 2.3%
C=CCn1c(=O)c2cnc(Nc3ccc(N4CCN(C)CC4)cc3)nc2n1-c1ccc2c(n1)[C@@](O)(CC)CC2 [Compound (B)]	6	33	74.5	55	inhibition at 0.3 µM (OPM-2 cells [3]): 4.3%; inhibition at 0.012 µM (MOLM-13 cells): 38.6%; inhibition at 0.12 µM (HL-60 cells [1]): 5.6%
CC1(C)CCC(CN2CCN(c3ccc(C(=O)NS(=O)(=O)c4ccc(NC[C@H]5CC[C@](C)(O)CC5)c([N+](=O)[O-])c4)c(Oc4cnc5[nH]ccc5c4)c3)CC2)=C(C23CC(C(F)F)(C2)C3)C1 [Compound (1A)]	25	18	62.8	60	inhibition at 1.5 µM (OPM-2 cells [3]): 43%; inhibition at 0.004 µM (MOLM-13 cells): 35.4%; inhibition at 0.04 µM (HL-60 cells [1]): 20.4%
C[C@@H]1C[C@H]2[C@@H]3CCC4=CC(=O)C=C[C@]4(C)[C@@]3(F)[C@@H](O)C[C@]2(C)[C@@]1(O)C(=O)CO [Dexamethasone, reference compound]	–	–	22.5	–	inhibition at 0.1 µM (OPM-2 cells [3]): 32%
CC(C)C[C@H](NC(=O)[C@H](Cc1ccccc1)NC(=O)c1cnccn1)B(O)O [Bortezomib, reference compound]	–	0	–	–	–
